The source of these data is patent US7647217B2, “Structure of the farnesoid X receptor ligand binding domain and methods of use therefor” (The Salk Institute for Biological Studies, priority 2002, dated 2010).

Test [1] relates to hPPARαγδ. Nature of the test: GAL4 chimeric NHR cross-reactivity assay. The test is classed as cell-based, human. The note with it: 10 μM. On the procedure: (§1) FIGS. 3A-3E collectively show the results of ligand activation of CV-1 cells co-transfected with a luciferase reporter gene with a variety of receptor expression constructs. […] FIGS. 3C-3E show the results of CV-1 cells transiently transfected with the indicated reporter constructs, treated with either DMSO or 10 μM of the compounds fexaramine (3C), fexarine (3D), fexarene (3E). Reporter activity was normalized to the internal control and the data plotted as fold activation relative to untreated cells. All transfections contained CMX-βgal as an internal control.
(§2) The expression plasmids pCMX, pCMX-LacZ, pCMX-mFXRFL, pCMX-hRXRFL, pCMX-GALDBD-rFXRLBD and other pCUX-GALDBD-NR LBDs (hRXRα, hPPARαγδ, mPXR, hPXR, hLXRα, HTRβ, hRARβ, mCAR, mERR3 and hVDR) have been described elsewhere (Blumberg et al. (1998). SXR, a novel steroid and xenobiotic-sensing nuclear receptor. Genes Dev. 12(20), 3195-205). The reporter plasmids pMH2004-TK-luc, pTKECRE*6-luc, pTKER-8*2-luc and pMRP-2-luc also have been described elsewhere. The hPLTP-luc promoter was kindly provided by Dr Dennis Dowhan and the hIBABP-luc promoter was created from a plasmid provided by Dr Philippe Besnard.
(§3) Cell-based transcriptional activation assays using chimeric nuclear hormone receptor (NHR) constructs were established to measure the selectivity of the compounds to FXR relative to other NHRs (Forman et al. (1995). Identification of a nuclear receptor that is activated by farnesol metabolites. Cell 81, 687-693). These assays used fusion proteins with the yeast GAL4 DNA binding domain connected to the ligand-binding domain (LBD) of NHRs. These constructs were co-transfected with a thymidine kinase C minimal promoter reporter vector containing four copies of the GAL4 binding site. Titration experiments were then performed using the identified compounds. […] Addition of RXR had no effect on the activation potential of fexaramine, fexarine, fexarene in this assay.
(§4) No activity was observed on other chimeric NHR constructs including hRXRα, hPPARαγδ, mPXR, hPXR, hLXRα, hTRβ, hRARβ, mCAR, mERR3 and hVDR (see FIGS. 3C-3E).

Test [2] has as its target T1, hLXRα (Homo sapiens, UniProt Q13133).
T1 construct: expressed in transfected cells; host or cells: CV-1 (monkey)
T1 sequence (Q13133 209-447 limits assumed): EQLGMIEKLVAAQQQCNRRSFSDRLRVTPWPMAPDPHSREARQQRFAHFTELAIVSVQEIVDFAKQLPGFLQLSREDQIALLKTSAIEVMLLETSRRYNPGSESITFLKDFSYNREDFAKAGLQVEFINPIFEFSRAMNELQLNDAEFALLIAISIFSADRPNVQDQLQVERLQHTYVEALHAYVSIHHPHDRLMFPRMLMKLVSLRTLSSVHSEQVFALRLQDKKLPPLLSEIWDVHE
Nature of the test: GAL4 chimeric NHR cross-reactivity assay. The test is classed as cell-based. The following applies: 10 μM. The procedure: as §1, §2, §3, §4

Test [3] concerns the target T2, FXR ligand-binding domain (Homo sapiens, UniProt Q96RI1).
T2 construct: made in house; host or cells: E. coli BL21 (DE3)
T2 sequence (Q96RI1 258-486): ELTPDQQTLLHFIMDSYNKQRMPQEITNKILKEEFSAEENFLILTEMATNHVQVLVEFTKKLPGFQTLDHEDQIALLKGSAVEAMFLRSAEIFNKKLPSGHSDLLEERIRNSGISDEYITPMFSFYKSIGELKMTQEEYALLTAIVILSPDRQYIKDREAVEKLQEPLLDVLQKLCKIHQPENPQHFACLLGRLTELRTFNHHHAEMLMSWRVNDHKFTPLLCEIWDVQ
Nature of the test: FRET-based coactivator (SRC-1 peptide) binding assay. The format is biochemical. The following applies: for EC50: agonist mode, 8 nM GST-FXR LBD, 16 nM SRC-1 peptide, read-out: EC50 of SRC-1 peptide recruitment. The procedure:
Increasing amounts of the compounds were added as indicated. Binding reactions contained 8 nM Europium labeled GST-FXR ligand-binding domain fusion protein and 16 nM allophycocyanin-labeled SRC-1 receptor binding peptide. Results are expressed at 1000*(665 nm/615 nm).
Standard PCR amplifications of the LBD of human FXR (residues 248 to 476) and sub-cloning techniques were used to generate pGEX Glutathione-s-transferase (GST) and pHIS8-3 (Jez et al. (2000) Dissection of malonyl-coenzyme A decarboxylation from polyketide formation in the reaction mechanism of a plant polyketide synthase. Biochemistry 39, 890-902) prokaryote protein expression vectors. DNA fragments containing hFXR aa248 to 476 were cloned into the BamHI site of pGEX-hFXR, while the cloning sites NcoI and BamHI sites were used in pHIS8-3.
To determine if the compounds identified as ligands could promote the association of FXR with co-activators in vitro, a fluorescence resonance energy transfer (FRET)-based coactivator binding assay was employed (see, for example, Makishima et al. (1999), supra; Urizar et al. (2002). A natural product that lowers cholesterol as an antagonist ligand for FXR. Science. 296(5573), 1703-6). This assay relies on an agonist-induced interaction between the nuclear receptor and its coactivator bringing two fluorogenic partners together resulting in the nuclear receptor ligand-dependent FRET.

A word on the EC50: it is the concentration needed to bring the measured effect to its halfway point. Consider `COC(=O)/C=C/c1cccc(N(Cc2ccc(-c3ccc(N(C)C)cc3)cc2)C(=O)C2CCCCC2)c1` [fexaramine], for which the “activity on chimeric hPPARαγδ constructs” value in test [1] is “No activity”. For the same compound, the “activity on chimeric hLXRα construct” value in test [2] is recorded as “No activity”. The EC50 in test [3] was found to be 255 nM.

With `COC(=O)/C=C/c1cccc(N(Cc2ccc(-c3ccccc3OC)cc2)C(=O)C(C)C)c1` [SRI-1], the “recruitment of SRC-1 peptide” value in test [3] is recorded as “Weaker recruitment”.

With `COC(=O)/C=C/c1cccc(N(Cc2ccc(/C=C/c3ccccc3)cc2)C(=O)C2CCCCC2)c1` [fexarene], the “activity on chimeric hPPARαγδ constructs” value in test [1] was “No activity”. In test [2], the “activity on chimeric hLXRα construct” value was “No activity”. Also, the half-maximal effective concentration (EC50) in test [3] is roughly 255 nM.

For the compound `COC(=O)/C=C/c1cccc(N(Cc2ccc(-c3ccc4c(c3)OCO4)cc2)C(=O)C2CCCCC2)c1` [fexarine], in test [1], the “activity on chimeric hPPARαγδ constructs” value is “No activity”. Also, in test [2], the “activity on chimeric hLXRα construct” value is on record as “No activity”. In addition, the half-maximal effective concentration (EC50) in test [3] came out at 222 nM.

In the case of `COC(=O)/C=C/c1cccc(N(Cc2ccc(-c3ccc(C(C)(C)C)cc3)cc2)C(=O)C(C)C)c1` [SRI-2], in test [3], the “recruitment of SRC-1 peptide” value is reported as “Weaker recruitment”.
